Among the test systems are NCI-H23 lung; A498 renal; HT29 colon; SW-620 colon; MDA-MB-435; CAKI-1 renal; ACHN renal; HCT-116 colon; KM12 colon; EKVX NSCLC.
Holding throughout (test): inhibition of tumour cell growth, NCI panel, 48 h

Here are results for 9 compounds from PubChem BioAssay (NCI).

Where “and” joins values, the source holds several entries; their conditions need not be identical. Equal values may be shown once.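 Exposure lasted 48 hours, with cells grown in 96-well plates and compounds tested at five concentrations. At the GI50, growth is halved. TGI is the concentration that stops growth completely.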

As for `CCOc1cccnc1/C=N/NC(N)=S`, the GI50 in the experiment on NCI-H23 lung is 5050 nM; in the experiment on A498 renal it was 3950 nM; in the experiment on HT29 colon it was 4340 nM; in the experiment on SW-620 colon it was 4460 nM; with MDA-MB-435 it was 4530 nM; in the experiment with CAKI-1 renal it was 3510 nM. Besides, the GI50 in the experiment on ACHN renal was 4010 nM; with HCT-116 colon, 4260 nM; in the experiment on KM12 colon, 4380 nM. The TGI in the experiment with NCI-H23 lung, in the experiment with A498 renal, in the experiment with HT29 colon, with SW-620 colon, with MDA-MB-435 and in the experiment on CAKI-1 renal was greater than 100 µM throughout. The TGI in the experiment with ACHN renal, in the experiment on HCT-116 colon and in the experiment with KM12 colon was greater than 100 µM in each case.

On to `CC(C)C[C@H](NC(=O)[C@@H](O)[C@H](N)Cc1ccccc1)C(=O)O`, for which the TGI with NCI-H23 lung, with A498 renal, in the experiment with HT29 colon, in the experiment on SW-620 colon, with MDA-MB-435 and with CAKI-1 renal was greater than 100 µM throughout. The TGI in the experiment with ACHN renal, in the experiment with HCT-116 colon and in the experiment with KM12 colon was greater than 100 µM each time. The GI50 in the experiment with A498 renal is greater than 100000 nM.

`CC(C)(C)c1ccc(S(=O)(=O)N[C@H]2CC[C@H]3[C@@H]4CCc5cc(O)ccc5[C@H]4CC[C@]23C)cc1`: the GI50 is 2030 nM with NCI-H23 lung; 1310 nM with A498 renal; 1960 nM with HT29 colon; 3180 nM in the experiment on SW-620 colon; 1790 nM with MDA-MB-435; 2280 nM in the experiment on CAKI-1 renal. The GI50 is 2280 nM in the experiment on ACHN renal, 1630 nM with HCT-116 colon and 1930 nM with KM12 colon. In addition, the TGI turned out to be 4.28 µM in the experiment with NCI-H23 lung; 2.72 µM with A498 renal; 3.74 µM in the experiment on HT29 colon; 11.8 µM in the experiment with SW-620 colon; 3.33 µM in the experiment on MDA-MB-435; 6.26 µM in the experiment on CAKI-1 renal. Besides, the TGI in the experiment with ACHN renal amounted to 5.67 µM; in the experiment with HCT-116 colon it was 2.98 µM; in the experiment on KM12 colon, 3.87 µM.

For `CC[C@@]1(OC(=O)CN(C)C)C(=O)OCc2c1cc1n(c2=O)Cc2cc3ccccc3nc2-1`, the GI50 in the experiment on NCI-H23 lung is 20.7 nM; in the experiment with A498 renal, 85.1 nM; in the experiment on HT29 colon it was 156 nM; in the experiment on SW-620 colon, 160 nM; with EKVX NSCLC, 1880 nM; in the experiment on HCT-116 colon it was 39.1 nM. Besides, the TGI is 0.342 µM and 0.381 µM with NCI-H23 lung; 0.984 µM and 0.317 µM with A498 renal; 1.54 µM in the experiment with MDA-MB-435; 2.4 µM and 0.806 µM with CAKI-1 renal; 0.273 µM in the experiment with ACHN renal.

For `COC1C(CO)OC(n2c3ccccc3c3c4c(c5c6ccccc6[nH]c5c32)C(=O)NC4=O)C(O)C1OC(=O)C(N)CCCCN` (stereo not drawn), the GI50 was 2790 nM in the experiment on NCI-H23 lung; 917 nM in the experiment with A498 renal; 2650 nM in the experiment on HT29 colon; 198 nM in the experiment on SW-620 colon; 1070 nM with MDA-MB-435; 1210 nM in the experiment with CAKI-1 renal. The GI50 in the experiment on ACHN renal was 713 nM; in the experiment on EKVX NSCLC, 1690 nM; with KM12 colon, 499 nM. The TGI was greater than 50 µM in the experiment with NCI-H23 lung; 3.11 µM with A498 renal; greater than 50 µM in the experiment on HT29 colon; greater than 16.9 µM with SW-620 colon; 5.04 µM in the experiment on MDA-MB-435; 11.7 µM in the experiment on CAKI-1 renal. For the same compound, the TGI was 3.51 µM in the experiment with ACHN renal, 8.86 µM in the experiment on EKVX NSCLC and 4.13 µM in the experiment with KM12 colon.

`CCCCCCN1C(=O)CN=C1Nc1ccc2cc3ccc(NC4=NCC(=O)N4CCCCCC)cc3nc2c1`: the GI50 with NCI-H23 lung is 1960 nM; with A498 renal it was 15900 nM; with HT29 colon it was 1810 nM; in the experiment on SW-620 colon, 1840 nM; in the experiment on MDA-MB-435, 1790 nM; in the experiment on ACHN renal, 1760 nM. The GI50 in the experiment on EKVX NSCLC was 1890 nM; in the experiment with HCT-116 colon, 1190 nM; in the experiment on KM12 colon it was 1470 nM. Further, the TGI with NCI-H23 lung came to 5.23 µM; in the experiment on A498 renal it was 32.6 µM; in the experiment on HT29 colon, 4.2 µM; in the experiment with SW-620 colon, 3.7 µM; with MDA-MB-435 it was 3.77 µM; in the experiment on ACHN renal, 3.42 µM. In addition, the values for the TGI in the experiment on EKVX NSCLC, in the experiment on HCT-116 colon and in the experiment on KM12 colon were 5.22 µM, 2.48 µM and 4.1 µM, respectively.

Consider `O=c1c2cc(F)ccc2sc2c(NCCCN3CCCC3)nc3ccccc3c12`, for which the GI50 in the experiment on NCI-H23 lung was 1890 nM; in the experiment on A498 renal, 1740 nM; in the experiment with MDA-MB-435, 1800 nM; in the experiment with CAKI-1 renal it was 1480 nM; in the experiment with ACHN renal, 1690 nM; in the experiment with EKVX NSCLC, 2580 nM. Further, the GI50 with HCT-116 colon is 1630 nM. For the same compound, the TGI in the experiment on NCI-H23 lung came out at 3.69 µM; with A498 renal, 7.65 µM; with MDA-MB-435 it was 3.25 µM; in the experiment with CAKI-1 renal it was 2.95 µM; in the experiment with ACHN renal, 3.18 µM; with EKVX NSCLC it was 8.48 µM. For the same compound, in the experiment with HCT-116 colon, the TGI stood at 3.19 µM.

`CCNC(=O)Oc1ccc(/C(=C(\C)c2ccc(Cl)cc2)c2ccc(OCCN3CCCCC3)cc2)cc1`: the GI50 in the experiment with NCI-H23 lung is 5100 nM; in the experiment on A498 renal, 13700 nM; in the experiment with HT29 colon it was 3160 nM; in the experiment on SW-620 colon it was 2200 nM; with MDA-MB-435, 3390 nM; in the experiment on ACHN renal it was 4780 nM. For the same compound, the GI50 was 6140 nM in the experiment on EKVX NSCLC, 1690 nM with HCT-116 colon and 3810 nM with KM12 colon. Moreover, the TGI with NCI-H23 lung is 19.7 µM; with A498 renal, 27 µM; with HT29 colon it was 10.9 µM; in the experiment with SW-620 colon it was 4.97 µM; with MDA-MB-435 it was 14.1 µM; with ACHN renal, 16.7 µM. Further, the TGI stood at 21.9 µM with EKVX NSCLC, 3.22 µM in the experiment on HCT-116 colon and 15.4 µM in the experiment on KM12 colon.

In the case of `C#Cc1cccc(Nc2ncnc3ccc(-c4cncc(NS(C)(=O)=O)c4)cc23)c1`, the GI50 is 2360 nM in the experiment with NCI-H23 lung; 372 nM with A498 renal; 1860 nM with HT29 colon; 2360 nM in the experiment on SW-620 colon; 2940 nM in the experiment with MDA-MB-435; 979 nM in the experiment on ACHN renal. For the same compound, the GI50 in the experiment on EKVX NSCLC is 1120 nM; in the experiment on HCT-116 colon, 1450 nM; with KM12 colon, 2330 nM. For the same compound, the TGI with NCI-H23 lung came out at 10.8 µM; in the experiment on A498 renal it was 2.04 µM; with HT29 colon, 6.28 µM; in the experiment on SW-620 colon, 6.31 µM; in the experiment on MDA-MB-435, 13.7 µM; in the experiment with ACHN renal, 49.6 µM. Besides, the TGI came out at 4.6 µM with EKVX NSCLC, 3.29 µM with HCT-116 colon and 6.52 µM in the experiment with KM12 colon.
